Source: the supplement of paper PMC10307832

Legend:
Assay in all cases: relative viability (nuclei count vs DMSO), 5 days (fraction); higher = more cells survive
[1] = compound: CC1=CC(=CC=C1)NC2=NC(=CS2)C3=CC=NC=C3 + O=C(CCCCCCC(=O)Nc1ccccc1)NO [Vorinostat] (partner 1 µM)
Procedure, shortened: (§1)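 Lung cancer cell lines in 1536-well plates got either a single drug or a fixed anchor-drug dose together with five library-drug doses (not always all listed) in √10 steps, by pin tool, on the day after seeding. Nuclei were counted after 5 days, and relative viability is the treated-to-vehicle ratio of nuclei counts. Values are medians of duplicate plates.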

[2] = compound: CC1=CC(=CC=C1)NC2=NC(=CS2)C3=CC=NC=C3 + N=C(N)NC(=N)NCCc1ccccc1 [Phenformin] (partner 250 µM)
Procedure, shortened: as §1

Masitinib + Vorinostat = compound: Cc1ccc(NC(=O)c2ccc(CN3CCN(C)CC3)cc2)cc1Nc1nc(-c2cccnc2)cs1 [Masitinib] + O=C(CCCCCCC(=O)Nc1ccccc1)NO [Vorinostat] (partner 1 µM)
Procedure, shortened: as §1

Masitinib + Lapatinib = compound: Cc1ccc(NC(=O)c2ccc(CN3CCN(C)CC3)cc2)cc1Nc1nc(-c2cccnc2)cs1 [Masitinib] + CS(=O)(=O)CCNCc1ccc(-c2ccc3ncnc(Nc4ccc(OCc5cccc(F)c5)c(Cl)c4)c3c2)o1 [Lapatinib] (partner 2 µM)
Procedure, shortened: as §1

Cell Line	relative viability ([1]; first compound 0.08 µM)	relative viability ([1]; first compound 0.253 µM)	relative viability ([1]; first compound 0.8 µM)	relative viability ([1]; first compound 2.53 µM)	relative viability ([1]; first compound 8 µM)	relative viability ([2]; first compound 0.08 µM)	relative viability ([2]; first compound 0.253 µM)	relative viability ([2]; first compound 0.8 µM)	relative viability ([2]; first compound 2.53 µM)	relative viability ([2]; first compound 8 µM)	relative viability (Masitinib + Vorinostat; first compound 0.01 µM)	relative viability (Masitinib + Vorinostat; first compound 0.03162 µM)	relative viability (Masitinib + Vorinostat; first compound 0.1 µM)	relative viability (Masitinib + Vorinostat; first compound 0.3162 µM)	relative viability (Masitinib + Vorinostat; first compound 1 µM)	relative viability (Masitinib + Lapatinib; first compound 0.01 µM)	relative viability (Masitinib + Lapatinib; first compound 0.03162 µM)	relative viability (Masitinib + Lapatinib; first compound 0.1 µM)	relative viability (Masitinib + Lapatinib; first compound 0.3162 µM)	relative viability (Masitinib + Lapatinib; first compound 1 µM)
PC-14	0.84	0.674	0.715	0.867	0.666	0.47	0.457	0.601	0.521	0.502	0.716	0.79	0.767	0.691	0.865	0.286	0.314	0.315	0.185	0.309
NCI-H1792						0.207	0.36	0.373	0.309	0.252						0.721	0.405	0.874	0.846	0.995
HCC-78	0.513	0.468	0.477	0.41	0.481		0.628	0.527	0.631	0.75	0.485	0.435	0.468	0.47	0.388	0.871	0.62	0.743	0.334	0.625
IA-LM	0.884	0.954	0.942		0.78						0.737	0.747	1.06	1.19	0.957			0.891	0.928	1.07
NCI-H441	0.705	0.955	0.842	0.746	0.76	0.8	0.782	0.892	0.823	0.78	0.856	0.75	1.12	1.01	0.894					
NCI-H322M	0.788	0.759	0.916	0.814	0.95	0.63	0.726	0.788	0.854	0.797	0.831	0.821	0.881	0.91	0.882	0.55	0.623	0.573	0.603	0.53
LU99A	0.445	0.601	0.582	0.443	0.479	0.762	0.765	0.863	0.884	0.821	0.455	0.433	0.492	0.534	0.467	0.953	1.1	1.05	1.05	0.981
COR-L23	0.251	0.422	0.317	0.375	0.36	0.414	0.378	0.443	0.377	0.406	0.532	0.411	0.435	0.46	0.373	0.715	1.2	0.896	1.2	1.17
NCI-H2126	0.579	0.717	0.711	0.735	0.74	0.466	0.439	0.523	0.498	0.523	0.736	0.764	0.8	0.798	0.79	0.773	0.724	0.734	0.662	0.769
LC-2-ad	0.607	0.647	0.688	0.624	0.658	0.556		0.568	0.585	0.523	0.546	0.666	0.584	0.694	0.718	0.762	1.02	0.874	0.994	0.962
NCI-H1975	0.656	0.694	0.593	0.707	0.554	0.359	0.362	0.383	0.326	0.296	0.693	0.736	0.724	0.716	0.711	0.941	0.876	0.992	0.824	0.828
NCI-H1944	0.364	0.489	0.529	0.366	0.408	0.191	0.187	0.203	0.178	0.198		0.528		0.547	0.5		0.743	0.584	0.695	0.906
NCI-H1299																0.922	0.961	0.991	0.976	0.945
NCI-H1703																0.764	0.857	0.436	0.479	0.256
ChaGo-K-1	0.681	0.735	0.734	0.777	0.777	0.445	0.439	0.5	0.409	0.464	0.901	0.711	0.853	0.775	0.732					
NCI-H522	0.91	1.03	1.01	0.924	0.849	0.682	0.687	0.654	0.613	0.655	0.822	0.904	1.07	1.06	0.821					
NCI-H1648	0.279	0.455	0.548	0.422	0.349						0.471	0.401	0.454		0.555					
NCI-H1563						0.725	0.634	0.691	0.733	0.657						0.945	0.941	0.969	0.945	0.732
NCI-H2342	0.749	0.753	0.721	0.716	0.745	0.483	0.582	0.603	0.518	0.568	0.789	0.671	0.829	0.856	0.83					
SW 900	0.433	0.357	0.516	0.33	0.188	0.555	0.446	0.673	0.461	0.532	0.48	0.502	0.375	0.259	0.505					
A549						0.179	0.179	0.15	0.169	0.235						0.995	0.948	1.05	0.942	0.963
LCLC-103H	0.635	0.69	0.679	0.667	0.567	0.284	0.308	0.327	0.309	0.27		0.778	0.666	0.778	0.761					
